Results taken from ChEMBL document CHEMBL4396925, “Malabaricone C as Natural Sphingomyelin Synthase Inhibitor against Diet-Induced Obesity and Its Lipid Metabolism in Mice” (ACS Med Chem Lett, 2019).
One block for each compound: values may come before it. The source made the active and inactive calls. The calls are words filed in the database; no cut-off is given here.

Experiments:
[1] = molecular target: T1, Phosphatidylcholine:ceramide cholinephosphotransferase 2 (Homo sapiens, UniProt Q8NHU3); assay: Inhibition of SMS2 (unknown origin) stably expressed in mouse ZS cells using C6-NBD-ceramide as substrate preincubated for 30 mins followed by substrate addition and measured after 3 hrs by HPLC analysis; assay type: cell-based
T1 sequence (Q8NHU3 whole entry): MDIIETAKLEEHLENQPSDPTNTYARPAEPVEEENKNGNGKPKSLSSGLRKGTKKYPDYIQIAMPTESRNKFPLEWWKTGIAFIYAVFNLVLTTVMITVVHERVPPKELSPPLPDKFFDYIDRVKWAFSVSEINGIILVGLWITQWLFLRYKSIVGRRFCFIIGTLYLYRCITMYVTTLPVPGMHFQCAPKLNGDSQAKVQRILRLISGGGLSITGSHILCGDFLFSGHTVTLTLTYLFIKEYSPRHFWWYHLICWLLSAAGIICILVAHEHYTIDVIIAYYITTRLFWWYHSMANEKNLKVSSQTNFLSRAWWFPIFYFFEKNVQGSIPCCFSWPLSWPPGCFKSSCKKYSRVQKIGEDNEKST

[2] = molecular target: T2, Phosphatidylcholine:ceramide cholinephosphotransferase 1 (Homo sapiens, UniProt Q86VZ5); assay: Inhibition of SMS1 (unknown origin) stably expressed in mouse ZS cells using C6-NBD-ceramide as substrate preincubated for 30 mins followed by substrate addition and measured after 3 hrs by HPLC analysis; assay type: cell-based
T2 sequence (Q86VZ5 whole entry): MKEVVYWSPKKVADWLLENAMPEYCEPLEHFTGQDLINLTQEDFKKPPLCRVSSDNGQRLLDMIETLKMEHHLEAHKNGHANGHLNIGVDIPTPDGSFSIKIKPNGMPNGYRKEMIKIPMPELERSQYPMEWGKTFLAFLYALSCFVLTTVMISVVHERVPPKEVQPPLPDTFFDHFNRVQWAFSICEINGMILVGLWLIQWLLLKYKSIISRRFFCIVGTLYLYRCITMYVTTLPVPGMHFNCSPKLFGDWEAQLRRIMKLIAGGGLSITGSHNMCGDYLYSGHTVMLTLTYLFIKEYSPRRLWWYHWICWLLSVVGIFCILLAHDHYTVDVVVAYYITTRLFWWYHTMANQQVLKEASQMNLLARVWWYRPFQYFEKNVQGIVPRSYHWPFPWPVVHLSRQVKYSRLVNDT

[3] = molecular target: T2, Phosphatidylcholine:ceramide cholinephosphotransferase 1; assay: Noncompetitive inhibition of SMS1 (unknown origin) stably expressed in mouse ZS cells using 5 to 50 uM C6-NBD-ceramide as substrate preincubated for 30 mins followed by substrate addition and measured after 3 hrs by HPLC analysis; assay type: cell-based
[4] = molecular target: T1, Phosphatidylcholine:ceramide cholinephosphotransferase 2; assay: Noncompetitive inhibition of SMS2 (unknown origin) stably expressed in mouse ZS cells using 5 to 50 uM C6-NBD-ceramide as substrate preincubated for 30 mins followed by substrate addition and measured after 3 hrs by HPLC analysis; assay type: cell-based
[5] = system: HepG2; assay: Lipid lowering activity in human HepG2 cells assessed as change in oleic acid-induced free fatty acid level by ELISA; assay type: functional, cell-based
[6] = system: HepG2; assay: Lipid lowering activity in human HepG2 cells assessed as prevention in oleic acid-induced CD36/FAT activation; assay type: functional, cell-based
[7] = organism: Mus musculus; assay: Antiobesity activity in HFD-induced obese C57BL/6J mouse model assessed as improved lipid metabolism by oil red O-staining based histopathological analysis; assay type: functional, organism-based
[8] = Toxicity in HFD-induced obese C57BL/6J mouse model assessed as induction of leaner phenotype measured over 2 months; conditions: in vivo, 1461 h
[9] = molecular target: T3, Phosphatidylcholine:ceramide cholinephosphotransferase 2 (Mus musculus) (UniProt Q9D4B1); assay: Inhibition of SMS2 in HFD-induced obese C57BL/6J mouse liver tissue lysate using NBD-ceramide as substrate assessed as reduction in […] preincubated for 30 mins followed by substrate addition and measured after 3 hrs by HPLC analysis; assay type: subcellular
T3 sequence (whole entry): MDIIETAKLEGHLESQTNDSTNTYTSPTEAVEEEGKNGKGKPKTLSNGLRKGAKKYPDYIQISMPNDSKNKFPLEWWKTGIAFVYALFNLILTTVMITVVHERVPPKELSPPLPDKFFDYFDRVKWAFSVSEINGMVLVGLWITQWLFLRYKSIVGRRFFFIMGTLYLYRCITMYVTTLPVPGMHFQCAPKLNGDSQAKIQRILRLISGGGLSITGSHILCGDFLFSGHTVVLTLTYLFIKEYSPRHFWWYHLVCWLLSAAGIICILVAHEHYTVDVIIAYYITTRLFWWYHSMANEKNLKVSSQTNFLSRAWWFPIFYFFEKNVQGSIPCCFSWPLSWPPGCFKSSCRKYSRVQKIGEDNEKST

[10] = organism: Mus musculus; assay: Antiobesity activity in HFD-induced obese C57BL/6J mouse model assessed as decrease in liver weight relative to control; assay type: functional, organism-based
[11] = organism: Mus musculus; assay: Antiobesity activity in HFD-induced obese C57BL/6J mouse model assessed as reduction in TG level in liver by ELISA; assay type: functional, organism-based
[12] = system: MEF; assay: Cytotoxicity against MEF cells at 0.01 to 1 mM incubated for 3 hrs by CCK8 assay relative to control; assay type: cell-based; conditions: mouse, 1000 µM
[13] = organism: Mus musculus; assay: Antiobesity activity in HFD-induced obese C57BL/6J mouse model assessed as reduction in TG level in plasma by ELISA; assay type: functional, organism-based
[14] = organism: Mus musculus; assay: Antiobesity activity in HFD-induced obese C57BL/6J mouse model assessed as decrease in body weight measured after 20 days relative to control; assay type: functional; parameters: scale not given: the % may be the effect or the level left
[15] = molecular target: T4, Phosphatidylcholine:ceramide cholinephosphotransferase 2 (Mus musculus, UniProt Q9D4B1); assay: Inhibition of SMS2 in MEF cells using C6-NBD-ceramide as substrate preincubated for 1 hr followed by substrate addition and measured after 1 hr by HPLC analysis; assay type: cell-based
T4 sequence (Q9D4B1 whole entry): T3 sequence (whole entry)

[16] = molecular target: T5, Phosphatidylcholine:ceramide cholinephosphotransferase 1 (Mus musculus, UniProt Q8VCQ6); assay: Inhibition of SMS1 in MEF cells using C6-NBD-ceramide as substrate preincubated for 1 hr followed by substrate addition and measured after 1 hr by HPLC analysis; assay type: cell-based
T5 sequence (Q8VCQ6 whole entry): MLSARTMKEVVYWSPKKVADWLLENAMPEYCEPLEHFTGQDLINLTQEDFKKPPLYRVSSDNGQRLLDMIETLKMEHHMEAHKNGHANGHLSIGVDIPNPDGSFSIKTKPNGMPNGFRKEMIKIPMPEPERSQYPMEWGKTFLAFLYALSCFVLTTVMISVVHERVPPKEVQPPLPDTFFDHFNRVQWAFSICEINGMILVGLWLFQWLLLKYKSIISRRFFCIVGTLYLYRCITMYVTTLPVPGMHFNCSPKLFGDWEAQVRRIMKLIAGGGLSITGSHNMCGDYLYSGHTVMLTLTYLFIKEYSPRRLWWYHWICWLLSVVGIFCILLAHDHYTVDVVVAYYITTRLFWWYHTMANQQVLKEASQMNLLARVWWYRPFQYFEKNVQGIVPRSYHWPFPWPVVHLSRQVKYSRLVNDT

[17] = system: HepG2; assay: Lipid lowering activity in human HepG2 cells assessed as reduction in oleic acid-induced intracellular TG accumulation by ELISA; assay type: functional, cell-based
[18] = organism: Mus musculus; assay: Antiobesity activity in HFD-induced obese C57BL/6J mouse model assessed as reduction in free fatty acid level in plasma by ELISA; assay type: functional, organism-based
[19] = Toxicity in HFD-induced obese C57BL/6J mouse model assessed as effect in daily food intake relative to control; conditions: in vivo
[20] = system: HepG2; assay: Lipid lowering activity in human HepG2 cells assessed as reduction in oleic acid-induced lipid droplet formation by nile red staining based fluorescence microscopic method; assay type: functional, cell-based
[21] = organism: Mus musculus; assay: Antiobesity activity in HFD-induced obese C57BL/6J mouse model assessed as resistance in steatosis development in liver by oil red O-staining based histopathological analysis; assay type: functional, organism-based
[22] = organism: Mus musculus; assay: Antiobesity activity in HFD-induced obese C57BL/6J mouse model assessed as decrease fat content in liver; assay type: functional, organism-based
[23] = Toxicity in HFD-induced obese C57BL/6J mouse model assessed as effect on health measured over 2 months; conditions: in vivo, 1461 h
[24] = molecular target: T6, Phosphatidylcholine:ceramide cholinephosphotransferase 1 (Mus musculus) (UniProt Q8VCQ6); assay: Inhibition of SMS1 in HFD-induced obese C57BL/6J mouse liver tissue lysate using […] as substrate assessed as reduction in SM synthesis preincubated for 30 mins followed by substrate addition and measured after 3 hrs by HPLC analysis; assay type: subcellular
T6 sequence (whole entry): T5 sequence (Q8VCQ6 whole entry)

[25] = system: Mus musculus; assay: Antiobesity activity in HFD-induced obese C57BL/6J mouse model assessed as increase in glucose tolerance administrated orally for 8 weeks and measured post treatment by OGTT assay; assay type: functional, organism-based
[26] = Toxicity in HFD-induced obese C57BL/6J mouse model assessed as effect on behavior measured over 2 months; conditions: in vivo, 1461 h

IC50 [1]: 4.5 µM
IC50 [2]: 6 µM
Structure (SMILES): O=C(CCCCCCCCc1ccc(O)cc1)c1c(O)cc(O)cc1O

IC50 [1]: 4 µM
IC50 [3]: 2 to 3 µM
IC50 [4]: 1 to 3 µM
IC50 [2]: 4 µM
Structure (SMILES): O=C(CCCCCCCCc1ccccc1)c1c(O)cccc1O [MALABARICONE A]

IC50 [1]: 2.5 µM
IC50 [3]: 2 to 3 µM
IC50 [4]: 1 to 3 µM
IC50 [2]: 3.5 µM
Structure (SMILES): O=C(CCCCCCCCc1ccc(O)cc1)c1c(O)cccc1O [MALABARICONE B]

IC50 [1]: 1.5 µM
IC50 [3]: 2 to 3 µM
inhibition [9]: Active
IC50 [4]: 1 to 3 µM
IC50 [15]: 11 µM
IC50 [16]: 13 µM
IC50 [2]: 3 µM
inhibition [24]: Active
Structure (SMILES): O=C(CCCCCCCCc1ccc(O)c(O)c1)c1c(O)cccc1O [MALABARICONE C]
Activity [5]: inactive
Activity [6]: Dose-dependent effect
Activity [7]: Active
Activity [8]: Toxic
Activity [10]: Active
Activity [11]: Active
Activity [12]: 56 to 97%
Activity [13]: Active
Activity [14]: 42.7%
Activity [17]: Dose-dependent effect
Activity [18]: Active
Activity [19]: Non-Toxic
Activity [20]: Dose-dependent effect
Activity [21]: Active
Activity [22]: Active
Activity [23]: Non-Toxic
Activity [25]: Active
Activity [26]: Non-Toxic
